Patent US20130184330A1, “COMPOSITIONS AND METHODS FOR INDUCING CANCER CELL DEATH” (UNIVERSITY OF MIAMI, priority 2010, published 2013)
“Also recorded” adds a separate entry of the source.

What was measured:
[1] = tested on: AMPK and eif2-α phosphorylation, GRP78 and CHOP expression in MDA-MB-435 cells; assay: Western blot of ATP and ER stress/UPR markers; assay type: cell-based, human
Description: (§1) Cell types: Human tumor cell lines 1469 (pancreatic) and MDA-MB-435 (melanoma) were purchased from American Type Culture Collection (ATCC), and maintained in DMEM with 1 g/l of glucose (Mediatech). Mouse embryonic fibroblasts (MEF) that are PERK knock-out and its wild type pair were a kind gift from Dr. Mark Lehrman (University of Southwestern Texas, Dallas, Tex.). MEFs that have wild type eif2-α and eif2-α with its serine51 mutated to alanine were a kind gift from Dr. Glen Barber (University of Miami, Miami, Fla.). All MEFS were maintained in RPMI with 2 g/l of glucose (Invitrogen). All culture media were supplemented with 10% fetal bovine serum (FBS) (Invitrogen), penicillin/streptomycin (Invitrogen) and 0.1% Plasmocin (only for cell passage) (InvivoGen) unless otherwise specified. Cells were grown under 5% CO2 at 37° C.
(§2) Immunoblotting analysis: Cells were seeded onto six-well plates and cultured for 18-22 h to reach 40-70% confluence. Following drug exposure for the indicated times, cells were harvested and lysed with the lysis buffer (100 mM Tris-HCl at pH 7.4, 1% SDS, phosphatase inhibitor cocktail 2 and protease inhibitor cocktail from Sigma-Aldrich). Protein concentrations of each sample were determined using a Micro BCA Protein Assay Kit (Thermo Scientific) according to the manufacturer's directions, and equal amounts of proteins were loaded onto 4-15% Tris-HCl gradient gels (except 12% gels for siRNA experiments) (Bio-Rad). After SDS-PAGE, proteins were transferred onto a polyvinylidene fluoride (PVDF) membrane (Millipore), blocked with 5% milk and probed with corresponding primary antibodies overnight (except 1 h for β-actin). The membrane was washed and probed with secondary antibodies for 1 h. Membrane was then incubated with SuperSignal West Pico or Femto Chemiluminescent Substrate (Thermo Scientific) and signals were visualized on Blue Lite Autorad Films (ISCBioExpress). All primary antibodies were used at 1:1000 dilution except for Atg7 (1:300) and β-actin (1:10000), and the secondary antibodies were used at 1:10000. Representative blots from at least three independent experiments were shown unless otherwise indicated.
(§3) siRNA transfection: Cells were seeded into 25-cm^2 flasks and cultured for 24 h to reach ˜60% confluence using antibiotics-free media. Then, cells were transfected with anti-Luc siRNA-1 (targeting luciiferase) or ON-TARGETplus SMARTpool siRNA against PERK or GCN2 using the DharmaFECT siRNA transfection reagent #2 (Dharmacon). Twenty-four hours after transfection, cells were collected and re-seeded onto 6-well or 24-well plates and drug-treated for immunoblotting or cytotoxicity analyses, respectively.

[2] = tested on: PERK+/+ MEFs; assay: Cell death analysis in wild type MEFs; assay type: cell-based, mouse; conditions: similar conditions as for PERK−/− cells
Description: as §1
(§4) Growth inhibition and Cytotoxicity assays: Cells were seeded onto 24-well plates and cultured for 18-22 h. After drug exposure for 48 hours, attached cells and their respective culture media were collected and centrifuged at 400 g for 5 min. The pellets were then resuspended in Hanks Balanced Salt Solution (HBSS) (Mediatech) and analyzed with Vi-Cell cell viability analyzer (Beckman Coulter) based on trypan blue exclusion. Results were shown as the percentages of dead cells out of total cells counted. […]

[3] = tested on: patients with various tumor types; conditions: in combination with taxotere; cited from earlier work
[4] = tested on: MEF eif2a A/A; assay: Cell death analysis in MEFs with non-phosphorylatable eif2-α; assay type: cell-based, mouse; conditions: 48 hours
Description: as §1, §4

[5] = tested on: eif2-α and GCN2 phosphorylation in PERK−/− MEFs; assay: Western blot of phosphorylated eif2-α and GCN2 in PERK knock-out MEFs; assay type: cell-based, mouse
Description: as §1, §2

[6] = tested on: PERK−/− MEFs; assay: Cell death analysis in PERK knock-out MEFs; assay type: cell-based, mouse
Description: as §1
Growth inhibition and Cytotoxicity assays: Cells were seeded onto 24-well plates and cultured for 18-22 h. After drug exposure for 48 hours, attached cells and their respective culture media were collected and centrifuged at 400 g for 5 min. The pellets were then resuspended in Hanks Balanced Salt Solution (HBSS) (Mediatech) and analyzed with Vi-Cell cell viability analyzer (Beckman Coulter) based on trypan blue exclusion. Results were shown as the percentages of dead cells out of total cells counted. Data were the averages of triplicate samples +SD from one representative experiment out of at least three independent analyses unless otherwise indicated.
as §3

[7] = tested on: MDA-MB-435 cells; assay: Growth inhibition assay, Vi-Cell trypan blue exclusion; assay type: cell-based, human; conditions: 48 hours, equivalent doses, i.e. 0.3 mM and 2 mM
Description: as §1, §4

O=CC[C@@H](O)[C@H](O)[C@H](O)CO [2-DG, 2-Deoxy-D-glucose]
eIF2a phosphorylation ([1]; 2-DG 0.2 mM and 2 mM, 24 hours): phosphorylated (inhibited) | AMPK phosphorylation ([1]; 2-DG 0.2 mM, 24 hours): phosphorylated | levels of UPR chaperone GRP 78 ([1]; 2-DG, aerobic conditions): increased levels | 2-DG toxicity in PERK+/+ cells with siRNA against GCN2 or increased glutamine [2]: not increased | tolerability in phase I trial [3]: well-tolerated | sensitivity of eif2-α mutant MEFs to toxic effects of 2-DG vs parental [4]: more sensitive | GCN2 phosphorylation induced by 2-DG ([5]; 2-DG 2 and 8 mM, 4 mM glutamine, 24 hours): induces phosphorylation of GCN2 | phosphorylated eif2-α levels in PERK−/− vs PERK+/+ cells ([5]; as a function of time of treatment with 2-DG): significantly lower levels | toxicity of 2-DG in PERK−/− vs PERK+/+ MEFs ([6]; 48 hours): more toxic; also recorded: more sensitive

O=C[C@H](F)[C@@H](O)[C@H](O)[C@H](O)CO [2-FDG, 2-fluoro-deoxy-D-glucose]
induction of UPR marker GRP 78 compared with 2-DG ([1]; equivalent doses, 0.3 mM and 2 mM): less induction | toxicity of 2-FDG in PERK−/− cells ([6]; doses that do not induce ER stress but block glycolysis, 48 hours): very little or no toxicity | growth inhibitory activity compared with 2-DG [7]: significantly less growth inhibitory activity than 2-DG

NC(=O)CC[C@H](N)C(=O)O [glutamine]
eif2-α phosphorylation with exogenous glutamine ([5]; 2-DG treated PERK−/− cells, exogenous glutamine): reduces | 2-DG induced GCN2 phosphorylation with exogenous glutamine ([5]; glutamine increased to 8 mM): attenuated | 2-DG toxicity in PERK−/− cells in 8 mM vs 4 mM glutamine ([6]; 8 mM glutamine, 2-DG 48 hours): increased toxicity
